Consider 2 molecules from BindingDB's records for patent US20240174621 (Hoffmann-La Roche, 2024).

Each structure is given as a SMILES string.

What all share (experiment): Kinase Assay
Assay [1] deals with Tyrosine-protein kinase CSK (Homo sapiens, UniProt P41240). The text has this:
(§1) The assay is not in detail.

For assay [2], the target named is Serine/threonine-protein kinase B-raf [V600E] (Homo sapiens, UniProt P15056, V600E).
From the text: as §1

Assay [3] concerns the target Serine/threonine-protein kinase B-raf (Homo sapiens, UniProt P15056).
From the text: as §1

Assay [4] has as its target Tyrosine-protein kinase Lck (Homo sapiens, UniProt P06239).
From the text: as §1

Assay [5] concerns the target RAF proto-oncogene serine/threonine-protein kinase (Homo sapiens, UniProt P04049).
From the text: as §1

Serine/threonine-protein kinase B-raf [V600E], sequence (P15056 2-766 V600E limits assumed): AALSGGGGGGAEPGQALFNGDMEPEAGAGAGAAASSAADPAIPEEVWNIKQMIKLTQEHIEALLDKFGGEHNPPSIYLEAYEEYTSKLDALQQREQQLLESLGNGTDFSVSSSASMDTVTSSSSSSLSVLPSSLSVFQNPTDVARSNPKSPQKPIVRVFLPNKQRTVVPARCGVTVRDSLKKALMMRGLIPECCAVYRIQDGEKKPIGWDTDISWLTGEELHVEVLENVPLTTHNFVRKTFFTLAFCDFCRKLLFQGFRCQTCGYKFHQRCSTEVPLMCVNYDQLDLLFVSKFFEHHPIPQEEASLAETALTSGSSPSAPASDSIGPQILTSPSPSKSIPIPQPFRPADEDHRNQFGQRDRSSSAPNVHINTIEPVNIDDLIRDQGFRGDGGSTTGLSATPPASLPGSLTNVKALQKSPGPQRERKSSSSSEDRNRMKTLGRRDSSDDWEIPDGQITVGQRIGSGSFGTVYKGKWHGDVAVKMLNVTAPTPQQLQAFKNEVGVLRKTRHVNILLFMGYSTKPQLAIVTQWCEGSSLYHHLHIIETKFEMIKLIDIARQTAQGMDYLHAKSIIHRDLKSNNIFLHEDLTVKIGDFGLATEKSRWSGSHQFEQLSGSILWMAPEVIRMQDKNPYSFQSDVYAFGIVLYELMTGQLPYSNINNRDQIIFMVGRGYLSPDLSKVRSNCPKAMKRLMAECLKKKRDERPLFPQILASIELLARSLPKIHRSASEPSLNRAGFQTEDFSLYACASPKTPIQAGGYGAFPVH
Tyrosine-protein kinase Lck, sequence (P06239 whole entry): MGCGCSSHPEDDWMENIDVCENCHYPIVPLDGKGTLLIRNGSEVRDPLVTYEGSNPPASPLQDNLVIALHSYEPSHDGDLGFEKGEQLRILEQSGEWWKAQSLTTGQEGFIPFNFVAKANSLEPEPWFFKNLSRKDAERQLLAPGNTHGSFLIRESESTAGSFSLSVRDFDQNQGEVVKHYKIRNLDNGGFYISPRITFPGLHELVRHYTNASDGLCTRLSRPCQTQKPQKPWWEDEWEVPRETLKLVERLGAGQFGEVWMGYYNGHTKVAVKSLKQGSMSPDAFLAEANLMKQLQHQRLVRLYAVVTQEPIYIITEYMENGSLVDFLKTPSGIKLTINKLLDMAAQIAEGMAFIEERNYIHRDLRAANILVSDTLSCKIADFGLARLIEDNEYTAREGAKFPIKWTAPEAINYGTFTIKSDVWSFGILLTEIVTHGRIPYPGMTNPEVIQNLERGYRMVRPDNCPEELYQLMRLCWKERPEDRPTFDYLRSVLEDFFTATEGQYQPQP
Serine/threonine-protein kinase B-raf, sequence (P15056 whole entry): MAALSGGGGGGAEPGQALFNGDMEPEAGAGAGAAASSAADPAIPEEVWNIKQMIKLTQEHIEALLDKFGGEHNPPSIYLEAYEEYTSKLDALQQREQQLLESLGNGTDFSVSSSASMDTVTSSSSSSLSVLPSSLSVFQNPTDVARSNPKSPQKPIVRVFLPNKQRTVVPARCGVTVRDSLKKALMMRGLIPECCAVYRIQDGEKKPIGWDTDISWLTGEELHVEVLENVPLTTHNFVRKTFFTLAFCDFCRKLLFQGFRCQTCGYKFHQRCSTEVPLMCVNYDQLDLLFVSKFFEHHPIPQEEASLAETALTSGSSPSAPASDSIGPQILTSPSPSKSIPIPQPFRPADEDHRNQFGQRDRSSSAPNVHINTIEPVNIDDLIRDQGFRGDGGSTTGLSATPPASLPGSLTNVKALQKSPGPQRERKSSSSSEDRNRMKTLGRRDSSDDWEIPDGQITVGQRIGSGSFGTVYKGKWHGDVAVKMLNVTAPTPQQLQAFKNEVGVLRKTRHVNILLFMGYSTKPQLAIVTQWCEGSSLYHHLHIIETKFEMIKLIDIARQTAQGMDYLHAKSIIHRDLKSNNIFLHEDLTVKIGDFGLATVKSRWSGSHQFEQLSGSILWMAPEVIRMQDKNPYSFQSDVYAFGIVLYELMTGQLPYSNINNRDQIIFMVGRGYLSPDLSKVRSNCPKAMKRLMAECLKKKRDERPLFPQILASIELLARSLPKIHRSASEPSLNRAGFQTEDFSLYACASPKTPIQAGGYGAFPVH
Tyrosine-protein kinase CSK, sequence (P41240 whole entry): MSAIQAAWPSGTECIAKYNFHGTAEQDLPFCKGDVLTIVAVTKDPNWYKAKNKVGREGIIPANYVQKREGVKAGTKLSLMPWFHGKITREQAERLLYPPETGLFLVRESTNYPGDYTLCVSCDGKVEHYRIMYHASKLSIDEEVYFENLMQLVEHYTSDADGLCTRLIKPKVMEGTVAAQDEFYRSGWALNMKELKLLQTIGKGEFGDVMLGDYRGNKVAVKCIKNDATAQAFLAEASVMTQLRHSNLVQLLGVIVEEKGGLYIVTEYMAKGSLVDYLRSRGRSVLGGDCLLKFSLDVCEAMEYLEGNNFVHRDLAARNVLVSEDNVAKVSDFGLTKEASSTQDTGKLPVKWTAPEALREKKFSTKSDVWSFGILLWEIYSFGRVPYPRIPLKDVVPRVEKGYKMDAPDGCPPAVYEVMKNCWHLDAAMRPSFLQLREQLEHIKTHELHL
RAF proto-oncogene serine/threonine-protein kinase, sequence (P04049 whole entry): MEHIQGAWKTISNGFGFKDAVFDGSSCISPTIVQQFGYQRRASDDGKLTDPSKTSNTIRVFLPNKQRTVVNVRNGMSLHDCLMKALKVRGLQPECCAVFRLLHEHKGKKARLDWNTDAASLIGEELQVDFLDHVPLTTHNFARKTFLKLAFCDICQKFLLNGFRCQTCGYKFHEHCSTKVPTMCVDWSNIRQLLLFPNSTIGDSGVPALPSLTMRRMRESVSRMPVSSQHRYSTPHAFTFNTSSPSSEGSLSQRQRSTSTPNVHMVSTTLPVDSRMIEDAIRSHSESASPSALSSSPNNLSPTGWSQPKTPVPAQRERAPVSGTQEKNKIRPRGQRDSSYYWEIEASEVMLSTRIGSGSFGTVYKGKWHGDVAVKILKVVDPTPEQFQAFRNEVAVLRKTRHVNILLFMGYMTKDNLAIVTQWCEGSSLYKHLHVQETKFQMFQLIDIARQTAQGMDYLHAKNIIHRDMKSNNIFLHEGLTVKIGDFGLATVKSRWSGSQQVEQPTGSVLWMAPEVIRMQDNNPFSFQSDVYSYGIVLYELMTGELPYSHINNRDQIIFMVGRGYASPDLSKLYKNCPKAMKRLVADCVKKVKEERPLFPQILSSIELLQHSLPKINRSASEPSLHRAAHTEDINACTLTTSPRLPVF

As to `CN(C)S(=O)(=O)Nc1ccc(Cl)c(Oc2ccc3ncn(C)c(=O)c3c2)c1C#N` [US20240174621, Example AR-30], the Kd (commonly the constant that tells how readily two partners part at equilibrium) was determined as 8010 nM in assay [1]; 504 nM in assay [2]; 174 nM in assay [3]; 10400 nM in assay [4]; 822 nM in assay [5].

Turning to `Cn1cnc2ccc(Oc3c(Cl)ccc(NS(=O)(=O)N4CCCC4)c3C#N)cc2c1=O` [US20240174621, Example AR-31], the Kd in assay [1] came to 1210 nM; in assay [2], 119 nM; in assay [3], 45.9 nM; in assay [4], 12000 nM; in assay [5], 190 nM.
